In patent US20240190889A1, “NEW CYCLOPENTA-THIENO-DIAZEPINE DERIVATIVES AS GABA A GAMMA1 POSITIVE ALLOSTERIC MODULATORS” (Hoffmann-La Roche Inc., priority 2021, published 2024):
Read-outs that look alike come from different tables or passages of the source.

How the values were obtained:
[1] = molecular target: human GABAA α2β2γ1 receptor (Homo sapiens (Human), UniProt P47869+Q8N1C3); assay: Radioligand binding assay, competition for [3H]RO7239181, γ1-containing GABAA subtypes
Description: Membrane Preparation and Binding Assay for γ1-containing GABAA Subtypes
The affinity of compounds at GABAA γ1 subunit-containing receptors was measured by competition for [^3H]RO7239181 (67.3 Ci/mmol: Roche) binding to membranes from HEK293F cells (ThermoFisher R79007) expressing human (transiently transfected) receptors of composition α5β2γ1, α2β2γ1, α1β2γ1.
Harvested pellets from HEK293F cells expressing the different GABAA receptor subtypes were resuspended in Mannitol Buffer pH 7.2-7.4 (Mannitol 0.29 M, Tricthylamine 10 mM. Acetic acid 10 mM. EDTA 1 mM plus protease inhibitors (20 tablets Complete. Roche Diagnostics Cat. No. 05 056 489 001 per liter)), washed two times and then resuspended at 1:10 to 1:15 dilution in the same buffer. Cell disruption was performed by stirring the suspension in a Parr vessel #4637 at 435 psi for 15 minutes, and then the suspensions were centrifuged at 1000×g for 15 minutes at 4° C. (Beckman Avanti J-HC: rotor JS-4.2). The supernatant (S1) was transferred in a 21 Schott flask and the pellet (P1) was resuspended with Mannitol Buffer up to 175 ml. The resuspended pellet was transferred into a 250 ml Corning centrifugal beaker and centrifuged at 1500 ×g for 10 minutes at 4° C. (Beckman Avanti J-HC: rotor JS-4.2). The supernatant (S1) was then transferred in the 21 Schott flask and the pellet was discarded. The supernatants (S1) were centrifuged in 500ml Beckman polypropylene centrifugal beaker at 15 000×g for 30 minutes at 4° C. (Beckman Avanti J-20 XP; rotor JLA-10.500). The pellet (P2) was resuspended with Mannitol Buffer 1:1 and frozen at −80° C. The supernatant (S2) was centrifuged in 100 ml Beckman polypropylene centrifugal tubes at 48000×g for 50 minutes at 4 °C (Beckman Avanti J-20 XP: rotor JA-18). The supernatant (S3) was discarded and the pellet (P3) was resuspended with 1:1 Mannitol Buffer. The P2 and P3 protein concentration was determined with the BIORAD Standard assay method with bovine serum albumin as standard and measured on the NANO-Drop 1000. The membrane suspension was aliquots (500μl per tube) and stored at −80° C. until required.
Membrane homogenates were resuspended and polytronised (Polytron PT1200E Kinematica AG) in Potassium Phosphate 10 mM, KCl 100 mM binding buffer at pH 7.4 to a final assay concentration determined with a previous experiment.
Radioligand binding assays were carried out in a volume of 200 μL (96-well plates) which contained 100 μL of cell membranes. […] Assays were incubated to equilibrium for 1 hour at 4° C. and then, membranes were filtered onto unifilter (96-well white microplate with bonded GF/C filters preincubated 20-50 minutes in 0.3% Polyethylenimine) with a Filtermate 196 harvester (Packard BioScience) and washed 4 times with cold Potassium Phosphate 10 mM pH 7.4. KCl 100 mM binding buffer. After anhydrousing, filter-retained radioactivity was detected by liquid scintillation counting. Ki values were calculated using Excel-Fit (Microsoft) and are the means of two determinations.

[2] = molecular target: h-GABA-A α2β2γ1 receptor expressed in Xenopus laevis oocytes (Homo sapiens (Human), UniProt P47869+Q8N1C3); assay: Two-electrode voltage clamp electrophysiology in Xenopus oocytes expressing GABAA receptors; type: cell-based; settings: for Efficacy (GABA)%: % modulation of GABA EC20 = 100*(Fold increase-1), compound at 30-fold Ki α2β2γ1; for Fold increase h-GABA-A α2β2γ1 oocyte @ 30-fold Ki: GABA EC20, test compound at approx. 30-fold its Ki α2β2γ1, at least 3 oocytes
Text: Functional Expression of GABAA Receptors:
Xenopus Oocytes Preparation
Xenopus laevis oocytes at maturation stages V-VI were used for the expression of cloned mRNA encoding GABAA receptor subunits. Oocytes ready for RNA micro-injection were bought from Ecocyte, Castrop-Rauxel, Germany and stored in modified Barth's medium (composition in mM: NaCl 88, KCl 1, NaHCO3 2.4, HEPES 10, MgSO4 0.82, CaNO3 0.33, CaCl2 0.33, pH=7.5) at 20 C. until the experiment.
Xenopus Oocytes Microinjection
Oocytes were plated in 96-well plates for microinjection using the Roboinject automated instrument (MultiChannelSystems, Reutlingen, Germany). Approximately 50 nL of an aqueous solution containing the RNA transcripts for the subunits of the desired GABAA receptor subtype was injected into each oocyte. […] Oocytes were kept in modified Barth's medium (composition in mM: NaCl 88, KCl 1, NaHCO3 […], HEPES 10, MgSO4 0.82, CaNO3 0.33, CaCl2 0.33, pH=7.5) at 20° C. until the experiment.
Electrophysiological experiments were performed using the Roboocyte instrument (MultiChannelSystems, Reutlingen, Germany) on days 3 to 5 after the micro-injection of mRNA. During the experiment the oocytes were constantly superfused by a solution containing (in mM) NaCl 90, KCl 1, HEPES 5, MgCl: 1, CaCl, 1 (pH 7.4). Oocytes were impaled by two glass microelectrodes (resistance: 0.5-0.8 MS2) which were filled with a solution containing KCl 1M +K-acetate 1.5 M and voltage-clamped to −80 mV. The recordings were performed at room temperature using the Roboocyte two-electrode voltage clamp system (Multichannelsystem). After an initial equilibration period of 1.5 min GABA was added for 1.5 min at a concentration evoking approximately 20% of a maximal current response (EC20). After another rest interval of 2.5 min GABA was again added evoking a response of similar amplitude and shape. […] Current traces were recorded at a digitization rate of 10 Hz during and shortly before and after the GABA application.
Each compound and concentration was tested on at least 3 oocytes. Different oocytes were used for different compound concentrations.
For the analysis, the digitized current traces of the first and second GABA response were superimposed and, if necessary, rescaled to equal maximal amplitudes. The ratio between the two responses during the time interval of test compound application was calculated point by point. The extremum of the resulting “ratio trace” was taken as the efficacy (“Fold increase”) of the compound expressed as “% modulation of GABA EC” (100* (Fold increase-1)).

[3] = read-out: Ki h-GABAA α2β2γ1, membranes from HEK293F cells, [3H]RO7239181 20-30 nM, mean of two determinations

C[C@@H]1N=C(c2c(F)cccc2Cl)c2c(sc3c2C[C@@H](C(F)F)C3)-n2c(C3CC3)nnc21 [Example 11, (7S,13R)-9-(2-chloro-6-fluoro-phenyl)-3-cyclopropyl-13-(difluoromethyl)-7-methyl-16-thia-2,4,5,8-tetrazatetracyclo [8.6.0.02,6.011,15]hexadeca-1(10),3,5,8,11(15)-pentaene]
Ki [1]: 10.3 nM
Ki [1, 3]: 10.3 nM
Efficacy (GABA)% [2]: 44%
Fold increase h-GABA-A α2β2γ1 oocyte @ 30-fold Ki [2]: 1.44

Cc1cnc2n1-c1sc3c(c1C(c1c(F)cccc1F)=N[C@H]2C)C[C@@H](C(F)F)C3 [Example 20, (7S,13R)-13-(difluoromethyl)-9-(2,6-difluorophenyl)-3,7-dimethyl-16-thia-2,5,8-triazatetracyclo [8.6.0.02,6.011,15]hexadeca-1(10),3,5,8,11(15)-pentaene]
Ki [1]: 2.24 nM
Ki [1, 3]: 2.24 nM
Efficacy (GABA)% [2]: 70%
Fold increase h-GABA-A α2β2γ1 oocyte @ 30-fold Ki [2]: 1.70

Cc1nnc2n1-c1sc3c(c1C(c1c(F)cccc1F)=NC2)C[C@@H](C#N)C3 [Example 2, (13R)-9-(2,6-difluorophenyl)-3-methyl-16-thia-2,4,5,8-tetrazatetracyclo [8.6.0.02,6.011,15]hexadeca-1(10),3,5,8,11(15)-pentaene-13-carbonitrile]
Ki [1]: 42.7 nM
Ki [1, 3]: 42.7 nM
Efficacy (GABA)% [2]: 35%
Fold increase h-GABA-A α2β2γ1 oocyte @ 30-fold Ki [2]: 1.35

C[C@@H]1N=C(c2c(F)cccc2F)c2c(sc3c2C[C@@H](C(F)F)C3)-n2c(C3CC3)nnc21 [Example 8, (7S,13R)-3-cyclopropyl-13-(difluoromethyl)-9-(2,6-difluorophenyl)-7-methyl-16-thia-2,4,5,8-tetrazatetracyclo [8.6.0.02,6.011,15]hexadeca-1(10),3,5,8,11(15)-pentaene]
Ki [1]: 4.6 nM
Ki [1, 3]: 4.6 nM
Efficacy (GABA)% [2]: 37%
Fold increase h-GABA-A α2β2γ1 oocyte @ 30-fold Ki [2]: 1.37

Cc1nc2n(n1)-c1sc3c(c1C(c1c(F)cccc1F)=N[C@H]2C)C[C@@H](C(F)F)C3 [Example 16, (7S,13R)-13-(difluoromethyl)-9-(2,6-difluorophenyl)-4,7-dimethyl-16-thia-2,3,5,8-tetrazatetracyclo [8.6.0.02,6.011,15]hexadeca-1(10),3,5,8,11(15)-pentaene]
Ki [1]: 2.3 nM
Ki [1, 3]: 2.3 nM
Efficacy (GABA)% [2]: 32%
Fold increase h-GABA-A α2β2γ1 oocyte @ 30-fold Ki [2]: 1.32

Fc1cccc(F)c1C1=NCc2nnc(-c3cccnn3)n2-c2sc3c(c21)C[C@@H](C(F)F)C3 [Example 10, (13R)-13-(difluoromethyl)-9-(2,6-difluorophenyl)-3-pyridazin-3-yl-16-thia-2,4,5,8-tetrazatetracyclo [8.6.0.02,6.011,15]hexadeca-1(10),3,5,8,11(15)-pentaene]
Ki [1]: 3 nM
Ki [1, 3]: 3 nM
Efficacy (GABA)% [2]: 47%
Fold increase h-GABA-A α2β2γ1 oocyte @ 30-fold Ki [2]: 1.47

Fc1cccc(Cl)c1C1=NCc2nnc(C3CC3)n2-c2sc3c(c21)C[C@@H](C(F)F)C3 [Example 6, (13R)-9-(2-chloro-6-fluoro-phenyl)-3-cyclopropyl-13-(difluoromethyl)-16-thia-2,4,5,8-tetrazatetracyclo [8.6.0.02,6.011,15]hexadeca-1(10),3,5,8,11(15)-pentaene]
Ki [1]: 6.6 nM
Ki [1, 3]: 6.6 nM
Efficacy (GABA)% [2]: 85%
Fold increase h-GABA-A α2β2γ1 oocyte @ 30-fold Ki [2]: 1.85

Cc1nnc2n1-c1sc3c(c1C(c1c(F)cccc1Cl)=N[C@H]2C)C[C@@H](C(F)F)C3 [Example 9, (7S,13R)-9-(2-chloro-6-fluoro-phenyl)-13-(difluoromethyl)-3,7-dimethyl-16-thia-2,4,5,8-tetrazatetracyclo [8.6.0.02,6.011,15]hexadeca-1(10),3,5,8,11(15)-pentaene]
Ki [1]: 3.6 nM
Ki [1, 3]: 3.6 nM
Efficacy (GABA)% [2]: 38%
Fold increase h-GABA-A α2β2γ1 oocyte @ 30-fold Ki [2]: 1.38
